Results on three molecules are retold here after ChEMBL document CHEMBL5126589, “Drug design and DNA structural research inspired by the Neidle laboratory: DNA minor groove binding and transcription factor inhibition by thiophene diamidines” (Bioorg Med Chem, 2022).

Each structure is given as a SMILES string.

Test [1] is described as follows: Binding affinity to biotin labeled hairpin DNA 5'-GAATTC-3' (unknown origin) assessed as association constant by sensor chip immobilization based surface plasmon resonance analysis. In general terms: SPR reads the build-up and loss of mass on a sensor chip optically.
The nature of test [2]: Binding affinity to biotin labeled hairpin DNA 5'-GAATTC-3' (unknown origin) assessed as equilibrium binding constant by sensor chip immobilization based surface plasmon resonance analysis.
A short description of test [3]: Binding affinity to biotin labeled hairpin DNA 5'-GAATTC-3' (unknown origin) assessed as equilibrium dissociation constant by sensor chip immobilization based surface plasmon resonance analysis.
Test [4] in a line: Binding affinity to biotin labeled hairpin DNA 5'-GAATTC-3' (unknown origin) assessed as dissociation rate constant by sensor chip immobilization based surface plasmon resonance analysis.
Test [5] is described as follows: Inhibition of PU.1 binding to biotin labeled lambdaB DNA (unknown origin) by sensor chip immobilization based surface plasmon resonance analysis.

As a reminder, the Kd is the constant that tells how readily two partners part at equilibrium. As usually defined, the IC50 is the point on the concentration scale where inhibition reaches its midpoint. `N=C(N)c1ccc(-c2ccc(-c3nc4ccc(C(=N)N)cc4[nH]3)s2)cc1`: in test [1], the Ka was 5.8 10^6/M/s. In addition, the KA in test [2] was 6.6 10^8/M. Besides, the values for the Kd in test [3] and in test [4] were 1.5 nM and 8.9 10^-3/s, respectively. Further, in test [5], the IC50 is 9 nM.
In the case of `N=C(N)c1ccc(-c2ccc(-c3cc4ccc(C(=N)N)cc4[nH]3)s2)cc1`, in test [1], the Ka was 4.5 10^5/M/s. The equilibrium dissociation constant (Kd) in test [3] was 6.5 nM; in test [4], 2.9 10^-3/s. Moreover, the half-maximal inhibitory concentration (IC50) in test [5] is 23 nM.
With `N=C(N)c1ccc(-c2ccc(-c3ccc(C(=N)N)cc3)o2)cc1` [FURAMIDINE], the dissociation constant Kd in test [3] was found to be 140 nM.
